Assay results from publication PMC12066480, “Optimization of neuron-specific interfering peptides targeting GABAB receptor downregulation for proteolytic stability for conferring neuroprotection in a mouse model of cerebral ischemia” (Frontiers in Pharmacology, 2025).
Ends that are not written are not given here.

Assays:
[1] = tested on: cultured neuron/glia cells
[2] = tested on: cultured neurons (neuron/glia cultures)
[3] = tested on: cultured neurons (neuron/glia cultures); assay: Peptide uptake into individual cultured neurons, colocalization immunocytochemistry; settings: 1 h
[4] = Proteolytic stability in blood serum, Western blot; settings: peptide stock 1 μg/μL added 1:5, 37°C, 3 independent experiments and one technical replicate (Figures 3A-C)
Experimental: For testing the resistance of the peptides to proteolytic degradation blood serum was prepared from blood collected from naïve mice decapitated under deep isoflurane anesthesia. The blood samples were allowed to clot at RT for 10–15 min, followed by centrifugation at 2000 g for 10 min and 4°C to separate the serum. The serum was stored at −80°C until used.
For testing, a peptide stock solution of 1 μg/μL was added directly to the serum in a ratio of 1:5 and incubated at 37°C for different times. After incubation, the mixture was diluted 1:4 with PBS and the samples were incubated with 2x Laemmli sample buffer (Bio-Rad) for 1 h at 37°C. The samples were subjected to tricine-sodium dodecyl sulfate-polyacrylamide gel electrophoresis (SDS-PAGE) using 1 mm thick 16% gels modified for the detection of small peptides as described by ([Too et al., 1994]).
Proteins were transferred onto 0.1 μm nitrocellulose membranes, previously coated with a solution of 0.5% gelatine ([Too et al., 1994]), in a semi-dry transfer cell (Trans-Blot SD; Bio-Rad) for 70 min at 10 V. After transfer, the blots were immediately incubated in 4% PFA for 5 min, thoroughly washed and blocked for 1 h in PBS containing 5% non-fat dry milk at room temperature. Thereafter, the blots were incubated with Alexa Fluor 750-streptavidin overnight at 4°C in PBS containing 5% non-fat dry milk. The blots were washed three times for 10 min with TBST and immunoreactivity was detected by the ODYSSEY CLx scanner (LI-COR Biosciences). For quantification of signal intensity, the images were analyzed with the Image Studio software (LI-COR Biosciences).

Sequence	uptake of truncated RVG peptides (attached to 9R) into cultured neurons, screening [1]	colocalization with GABAB receptors and neuronal marker NeuN [2]	degradation after incubation for up to 72 h in mouse serum [4]	other results
GTPCDIFTRRRRRRRRR [Figure 2A peptide 4]	retained neuron-specific uptake	selectively taken up by neurons		peptide uptake into individual neurons by immunocytochemistry ([3]; 10 μg/mL, normalized to peptide 4, 50 neurons per sequence, two independent experiments (Figure 2B)): considerably more efficiently taken up by neurons than the other peptides tested; cell-type selectivity of uptake (NeuN vs GFAP colocalization) ([3]; NeuN, GFAP, DAPI, 3 independent determinations in triplicates (Figure 2C)): lack of uptake by astrocytes
GTPCDIFTRRRRRRRRRSETQDTMKTGSSTNNNEEEKSR [CaMKII-Pep]			did not result in an appreciable degradation	
GTPCDIFTRRRRRRRRRFQFTQNQKKEDSKTSTSV [PP2A-Pep]			did not result in an appreciable degradation	
YTIWMPENPRPGTPCDIFTNSRGKRASNGGGGRRRRRRRRR [Figure 1A peptide 12]				uptake into cultured neuron/glia cells (Figure 1A) [1]: did not affect its uptake into the cultured cells
FTNSRGKRRRRRRRRRR [Figure 2A peptide 5]	retained neuron-specific uptake	selectively taken up by neurons		
YTIWMPENRRRRRRRRR [Figure 2A peptide 2]	retained neuron-specific uptake	selectively taken up by neurons		
GTPCDIFTRRRRRRRRRLQDTPEKTTYIK [CHOP-Pep]			did not result in an appreciable degradation	
